Results taken from ChEMBL document CHEMBL3286152, “Development of a fluorometric microplate antiadhesion assay using uropathogenic Escherichia coli and human uroepithelial cells” (J Nat Prod, 2014).
In brackets after ≈: the same amount, converted by molar mass. Activity calls are given as the source filed them. No cut-off for these calls is given here.

Tests used:
Escherichia coli [1] = experiment: Inhibition of BacLight Green labeled Escherichia coli adherence to human UEC after 1 hr by flow cytometry analysis; type: functional, organism-based
Escherichia coli [2] = experiment: Bactericidal activity against BacLight Green labeled Escherichia coli up to 30 ug/ml; type: ADME, organism-based
Escherichia coli [3] = experiment: Inhibition of BacLight Green labeled Escherichia coli adherence to human UEC at 10 ug/ml after 1 hr by scanning electron microscopy analysis; type: functional, organism-based
Escherichia coli [4] = experiment: Inhibition of BacLight Green labeled Escherichia coli adherence to human UEC at 0.1 ug/ml after 1 hr by flow cytometry analysis; type: functional, organism-based
Escherichia coli [5] = experiment: Induction of morphological changes in BacLight Green labeled Escherichia coli assessed as alteration of fimbriae structure and distribution by fusing fimbriae at 10 ug/ml after 1 hr by transmission electron microscopy analysis; type: functional, organism-based
Escherichia coli [6] = experiment: Inhibition of BacLight Green labeled Escherichia coli adherence to human UEC at 1 ug/ml after 1 hr by flow cytometry analysis; type: functional, organism-based
Escherichia coli [7] = experiment: Inhibition of BacLight Green labeled Escherichia coli adherence to human UEC at 50 ug/ml after 1 hr by scanning electron microscopy analysis; type: functional, organism-based
Escherichia coli [8] = experiment: Induction of morphological changes in BacLight Green labeled Escherichia coli assessed as decrease of number of fimbriae at 50 ug/ml after 1 hr by transmission electron microscopy analysis; type: functional, organism-based

SMILES | inhibition (Escherichia coli [1]) | Activity (Escherichia coli [2]) | inhibition (Escherichia coli [3]) | IC50 (Escherichia coli [1]) [µg/mL] | inhibition (Escherichia coli [4]) | Activity (Escherichia coli [5]) | inhibition (Escherichia coli [6]) | inhibition (Escherichia coli [7]) | Activity (Escherichia coli [8])
O=C(/C=C/c1ccc(O)c(O)c1)O[C@@H]1C[C@](O)(C(=O)O)C[C@@H](O)[C@H]1O [CHLOROGENIC ACID] | inactive | Non-toxic |  |  |  |  |  |  | 
O=c1c(O)c(-c2cc(O)c(O)c(O)c2)oc2cc(O)cc(O)c12 [MYRICETIN] | Dose-dependent effect | Non-toxic | Active | 0.88 (≈ 2.77 µM) | Active | Active |  |  | 
Oc1cc(O)c2c(c1)O[C@@]1(c3ccc(O)c(O)c3)Oc3cc(O)c4c(c3[C@@H]2[C@H]1O)O[C@H](c1ccc(O)c(O)c1)[C@H](O)C4 [PROANTHOCYANIDIN A2] | inactive | Non-toxic |  |  |  |  |  |  | 
Oc1cc(O)c2c(c1)O[C@H](c1ccc(O)c(O)c1)[C@H](O)[C@H]2c1c(O)cc(O)c2c1O[C@H](c1ccc(O)c(O)c1)[C@@H](O)C2 [PROCYANIDIN B1] | Dose-dependent effect | Non-toxic |  |  |  |  | Active |  | 
Oc1cc(O)c2c(c1)O[C@H](c1ccc(O)c(O)c1)[C@H](O)[C@H]2c1c(O)cc(O)c2c1O[C@H](c1ccc(O)c(O)c1)[C@H](O)C2 [PROCYANIDIN B2] | Dose-dependent effect | Non-toxic |  |  |  |  | Active | Active | Active
Oc1cc(O)c2c(c1)O[C@H](c1ccc(O)c(O)c1)[C@H](O)[C@H]2c1c(O)cc(O)c2c1O[C@H](c1ccc(O)c(O)c1)[C@H](O)[C@H]2c1c(O)cc(O)c2c1O[C@H](c1ccc(O)c(O)c1)[C@H](O)C2 [PROCYANIDIN C1] | Dose-dependent effect | Non-toxic |  |  |  |  | Active |  | 
O=c1c(O)c(-c2ccc(O)c(O)c2)oc2cc(O)cc(O)c12 [QUERCETIN] | Dose-dependent effect | Non-toxic |  | 3.8 (≈ 12.6 µM) | Active |  |  |  | 
